Results reported in ChEMBL document CHEMBL5137017, “Identification of NVP-CLR457 as an Orally Bioavailable Non-CNS-Penetrant pan-Class IA Phosphoinositol-3-Kinase Inhibitor” (J Med Chem, 2022).
The source made the active and inactive calls. The calls are words filed in the database; no cut-off is given here.

Experiments:
[1] = Apparent permeability in human Caco-2 cells assessed as Km by Michaelis-Menten based analysis; assay type: ADME, cell-based; conditions: read-out: Km(app)
[2] = Inhibition of PI3K PTEN mutant in human MDA-MB-436 cells assessed as reduction in phosphorylation of AKT at Ser473 residue by Western blot analysis; assay type: cell-based
[3] = test system: Rat1; assay: Antitumor activity at rat Rat1 cells expressing myr-p110alpha xenografted in athymic nude mouse assessed as T/C ratio at 10 mg/kg, po qd measured after 14 to 22 days; assay type: functional; conditions: time 14-22 day
[4] = Half life in OF1 mouse at 10 mg/kg,po or 3 mg/kg,iv measured upto 24 hrs by LC-MS/MS analysis; assay type: ADME, organism-based; conditions: in vivo
[5] = molecular target: Tubulin (Sus scrofa) (UniProt P02554+P02550); assay: Inhibition of porcine tubulin polymerization assessed as inhibition of microtubule polymerization at 15 to 30 uM measured after 1 hr; assay type: protein assay; conditions: dose 15-30 µM
[6] = test system: Caco-2; assay: Nonspecific permeability coefficient in human Caco-2 cells at 0.25 to 30 uM measured after 120 mins by LC-MS/MS analysis; assay type: ADME, cell-based; conditions: caco-2, 2 h, dose 0.25-30 µM
[7] = Stability in rat liver microsomes assessed as hepatic extraction preincubated for 3 mins followed by NADPH addition and measured after 60 mins; assay type: ADME, Microsome; conditions: read-out: ERH
[8] = molecular target: Phosphatidylinositol 4,5-bisphosphate 3-kinase catalytic subunit alpha isoform (Homo sapiens, UniProt P42336); assay: Inhibition of PI3Kalpha (unknown origin) using L-alpha-phosphatidylinositol as substrate in presence of ATP by Kinase Glo luminescence assay
[9] = In vivo Inhibition of AKT phosphorylation at Ser473 residue in athymic nude mouse xenografted with rat Rat1-myr-p110alpha cells at 20 mg/kg, po qd measured after 14 hrs; assay type: functional
[10] = AUC(0 to Tlast) in athymic nude mouse xenografted with rat Rat1 cells expressing myr-p110alpha at 20 mg/kg, po measured after 8 days by LC-MS/MS analysis; assay type: ADME, organism-based; parameters: dose 20 mg/kg, time 8 day, route po; conditions: in vivo
[11] = Apparent permeability across apical to basolateral side in human Caco-2 cells at 10 uM measured after 120 mins by LC-MS/MS analysis; assay type: ADME, cell-based
[12] = Tmax in beagle dog at 3 mg/kg, po measured upto 24 hrs by LC-MS/MS analysis; assay type: ADME, organism-based, Canis lupus familiaris; conditions: in vivo
[13] = Inhibition of PI3K PTEN mutant in human HCC70 cells assessed as reduction in phosphorylation of AKT at Ser473 residue by Western blot analysis; assay type: cell-based
[14] = Effect on plasma insulin level in athymic nude mouse xenografted with rat Rat1 cells expressing myr-p110alpha at 10 mg/kg, po qd measured upto 14 hrs by glucometer analysis; assay type: toxicity, organism-based; conditions: in vivo
[15] = Plasma protein binding in OF1 mouse plasma at 10 mg/kg,po or 3 mg/kg,iv measured after 4 hrs by rapid equilibrium dialysis method; assay type: ADME, organism-based; conditions: read-out: PPB (converted)
[16] = Drug concentration in OF1 mouse blood at 1 mg/kg, iv measured at 5 mins post dose by LC-MS/MS analysis; assay type: ADME, organism-based; conditions: whole blood, read-out: Ct
[17] = test system: Rat1; assay: Antitumor activity at rat Rat1 cells expressing myr-p110alpha xenografted in athymic nude mouse assessed as T/C ratio at 20 mg/kg, po qd measured after 14 to 22 days; assay type: functional; conditions: time 14-22 day
[18] = Half life in Beagle dog at 5.4 mg/kg, po measured upto 24 hrs using PVP-ASD form of sample by LC-MS/MS analysis; assay type: ADME, organism-based, Canis lupus familiaris; conditions: in vivo
[19] = test system: Rat1; assay: Antitumor activity at rat Rat1 cells expressing myr-p110alpha xenografted in athymic nude mouse assessed as T/C ratio at 3 mg/kg, po qd measured after 14 to 22 days; assay type: functional; conditions: time 14-22 day
[20] = Oral bioavailability in beagle dog at 0.3 mg/kg measured upto 24 hrs by LC-MS/MS analysis; assay type: ADME, organism-based, Canis lupus familiaris; conditions: in vivo
[21] = Clast in athymic nude mouse xenografted with rat Rat1 cells expressing myr-p110alpha at 3 mg/kg, po measured after 8 days by LC-MS/MS analysis; assay type: ADME, organism-based; conditions: in vivo, time 8 day, read-out: Clast
[22] = test system: Rat1; assay: Antitumor activity at rat Rat1 cells expressing myr-p110delta xenografted in athymic nude mouse assessed as T/C ratio at 20 mg/kg, po bid measured after 7 to 15 days; assay type: functional; conditions: time 7-15 day
[23] = Tmax in beagle dog at 0.3 mg/kg,po or 0.1 mg/kg,iv measured upto 24 hrs by LC-MS/MS analysis; assay type: ADME, organism-based, Canis lupus familiaris; conditions: in vivo
[24] = test system: Rat1; assay: Antitumor activity at rat Rat1 cells expressing myr-p110alpha xenografted in athymic nude mouse assessed as T/C ratio at 40 mg/kg, po bid measured after 15 to 24 days; assay type: functional; conditions: time 15-24 day
[25] = Dose normalized AUC in Sprague-Dawley rat at 3 mg/kg, po measured upto 24 hrs by LC-MS/MS analysis; assay type: ADME, organism-based; conditions: in vivo
[26] = Stability in mouse liver microsomes assessed as hepatic extraction preincubated for 3 mins followed by NADPH addition and measured after 60 mins; assay type: ADME, Microsome; conditions: time 63 min, read-out: ERH
[27] = Oral bioavailability in Sprague-Dawley rat at 3 mg/kg measured for 0.25 to 24 hrs by LC-MS/MS analysis; assay type: ADME, organism-based; conditions: in vivo, time 0.25-24 hrs
[28] = Tlast in athymic nude mouse xenografted with rat Rat1 cells expressing myr-p110alpha at 3 mg/kg, po measured after 8 days by LC-MS/MS analysis; assay type: ADME, organism-based; conditions: in vivo, 192 h, time 8 day
[29] = molecular target: Serine/threonine-protein kinase mTOR (Mus musculus, UniProt Q9JLN9); assay: Inhibition of mTOR in Tscl-/- null mouse MEF assessed as reduction on RPS6 phosphorylation at Ser235/236 residue by alpha-screen assay; assay type: cell-based
[30] = Plasma protein binding in beagle dog plasma at 0.3 mg/kg,po or 0.1 mg/kg,iv measured after 4 hrs by rapid equilibrium dialysis method; assay type: ADME, organism-based, Canis lupus familiaris; conditions: read-out: PPB (converted)
[31] = Effect on blood glucose level in athymic nude mouse xenografted with rat Rat1 cells expressing myr-p110alpha at 3 to 20 mg/kg, po qd measured upto 14 hrs by glucometer analysis; assay type: toxicity, organism-based; conditions: in vivo, dose 3-20 mg/kg
[32] = test system: Rat1; assay: Antitumor activity at rat Rat1 cells expressing myr-p110alpha xenografted in athymic nude mouse assessed as tumor growth inhibition at 20 mg/kg, po bid measured after 9 days; assay type: functional; conditions: Rat1, 216 h, time 9 day
[33] = Dose normalized AUC(0 to Tlast) in athymic nude mouse xenografted with rat Rat1 cells expressing myr-p110alpha at 3 mg/kg, po measured after 8 days by LC-MS/MS analysis; assay type: ADME, organism-based; conditions: in vivo, 192 h, time 8 day
[34] = Inhibition of PI3K PTEN mutant in human BT-549 cells assessed as reduction in phosphorylation of AKT at Ser473 residue by Western blot analysis; assay type: cell-based
[35] = cells; conditions: Rattus norvegicus, Rat1, 1 h
[36] = Brain to blood ratio in OF1 mouse at 1 mg/kg, iv measured at 5 mins post dose by LC-MS/MS analysis; assay type: ADME, organism-based; conditions: brain and blood, read-out: BBR
[37] = Dose normalized AUC in beagle dog at 0.1 mg/kg, iv measured upto 24 hrs by LC-MS/MS analysis; assay type: ADME, organism-based, Canis lupus familiaris; conditions: in vivo

Chain of Phosphatidylinositol 4,5-bisphosphate 3-kinase catalytic subunit alpha isoform (P42336 whole entry, canonical isoform): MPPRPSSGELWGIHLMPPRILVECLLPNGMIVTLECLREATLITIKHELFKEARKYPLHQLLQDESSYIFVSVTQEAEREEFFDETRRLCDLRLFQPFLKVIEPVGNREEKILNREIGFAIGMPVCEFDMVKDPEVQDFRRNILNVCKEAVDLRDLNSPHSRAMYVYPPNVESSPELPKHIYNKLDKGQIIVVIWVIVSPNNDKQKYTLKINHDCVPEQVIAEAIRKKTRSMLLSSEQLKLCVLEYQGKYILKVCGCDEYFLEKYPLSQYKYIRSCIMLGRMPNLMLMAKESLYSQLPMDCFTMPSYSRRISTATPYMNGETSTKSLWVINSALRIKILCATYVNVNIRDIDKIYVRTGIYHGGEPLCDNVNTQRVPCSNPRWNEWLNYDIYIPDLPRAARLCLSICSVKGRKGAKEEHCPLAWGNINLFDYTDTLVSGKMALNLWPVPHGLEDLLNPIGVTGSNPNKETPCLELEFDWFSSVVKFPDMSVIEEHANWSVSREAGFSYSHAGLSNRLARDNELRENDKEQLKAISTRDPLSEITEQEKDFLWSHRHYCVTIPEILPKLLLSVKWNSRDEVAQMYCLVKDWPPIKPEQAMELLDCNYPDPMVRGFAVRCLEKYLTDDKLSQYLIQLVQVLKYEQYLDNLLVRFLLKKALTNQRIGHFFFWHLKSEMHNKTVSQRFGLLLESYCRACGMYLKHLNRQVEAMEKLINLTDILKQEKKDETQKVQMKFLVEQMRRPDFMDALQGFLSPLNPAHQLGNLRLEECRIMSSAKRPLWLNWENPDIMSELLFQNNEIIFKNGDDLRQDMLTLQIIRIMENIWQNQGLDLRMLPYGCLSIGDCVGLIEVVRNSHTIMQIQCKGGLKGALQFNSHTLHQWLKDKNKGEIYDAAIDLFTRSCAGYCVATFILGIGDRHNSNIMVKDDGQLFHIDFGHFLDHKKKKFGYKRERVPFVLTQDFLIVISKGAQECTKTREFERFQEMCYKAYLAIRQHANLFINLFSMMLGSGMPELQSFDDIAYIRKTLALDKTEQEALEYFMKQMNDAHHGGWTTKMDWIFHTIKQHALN
Chain of Tubulin (Sus scrofa) (P02550 whole entry, looked up): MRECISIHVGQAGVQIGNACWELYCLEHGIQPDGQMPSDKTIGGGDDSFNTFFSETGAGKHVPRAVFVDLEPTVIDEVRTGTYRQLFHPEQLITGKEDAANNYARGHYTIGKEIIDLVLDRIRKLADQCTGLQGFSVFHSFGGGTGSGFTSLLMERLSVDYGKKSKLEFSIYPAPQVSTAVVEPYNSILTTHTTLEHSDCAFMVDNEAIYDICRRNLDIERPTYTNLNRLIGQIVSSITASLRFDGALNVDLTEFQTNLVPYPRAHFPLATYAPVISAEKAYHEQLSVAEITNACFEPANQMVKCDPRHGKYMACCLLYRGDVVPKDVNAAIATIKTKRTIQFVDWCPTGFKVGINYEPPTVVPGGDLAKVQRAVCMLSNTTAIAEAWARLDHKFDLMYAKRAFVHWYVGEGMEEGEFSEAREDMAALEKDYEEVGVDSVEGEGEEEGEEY
Chain of Tubulin (Sus scrofa) (P02554 whole entry, looked up): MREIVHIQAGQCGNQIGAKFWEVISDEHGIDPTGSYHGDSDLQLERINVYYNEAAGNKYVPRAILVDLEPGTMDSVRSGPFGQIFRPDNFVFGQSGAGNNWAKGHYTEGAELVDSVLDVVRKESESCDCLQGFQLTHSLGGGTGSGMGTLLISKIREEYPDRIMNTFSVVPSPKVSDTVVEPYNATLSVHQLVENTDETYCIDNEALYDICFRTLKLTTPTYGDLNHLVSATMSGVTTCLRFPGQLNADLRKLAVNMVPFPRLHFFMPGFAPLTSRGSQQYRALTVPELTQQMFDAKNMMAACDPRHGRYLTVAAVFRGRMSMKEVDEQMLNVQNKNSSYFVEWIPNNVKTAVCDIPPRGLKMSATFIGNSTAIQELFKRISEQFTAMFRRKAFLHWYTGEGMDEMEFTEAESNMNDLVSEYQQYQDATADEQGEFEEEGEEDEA

SMILES: C[C@H]1OC(=O)N(c2nc(-c3cnc(N)nc3C(F)(F)F)cc(N3CCOCC3)n2)[C@H]1CO
- Km [1]: > 30 µM
- IC50 [2]: 179 nM
- T/C [3]: 0.14
- half-life [4]: 120 min
- inhibition [5]: Active
- Pm [6]: 73 10^-5 cm/min
- hepatic extraction ratio at 1 h [7]: 0.35
- IC50 [8]: 12 nM
- inhibition in vivo at 20 mg/kg [9]: 76%
- AUC(0-t) at 192 h [10]: 26 µM·h
- Papp A→B at 2 h, 10 µM [11]: 8.9 ×10⁻⁶ cm/s
- Tmax [12]: 2 h
- IC50 [13]: 56 nM
- Activity [14]: Toxic
- fraction unbound at 4 h [15]: 0.24
- concentration at 5 min [16]: 3.04 µM
- T/C [17]: 0.04
- half-life [18]: 594 min
- T/C [19]: 0.43
- bioavailability [20]: 98%
- concentration at 192 h [21]: 3 nM
- T/C [22]: -0.52
- Tmax [23]: 1.3 h
- T/C [24]: -0.86
- AUC/dose [25]: 1709 nM·h
- hepatic extraction ratio at 1 h [26]: 0.34
- bioavailability [27]: 97%
- Tlast [28]: 14 h
- IC50 [29]: 1630 nM
- fraction unbound at 4 h [30]: 0.29
- Activity [31]: Non-Toxic
- inhibition in vivo at 20 mg/kg [32]: > 80%
- AUC/dose [33]: 1.82 µM·h
- IC50 [34]: 99 nM
- IC50 [35]: 26 nM
- Kp at 5 min [36]: 0.02
- AUC/dose [37]: 11213 nM·h
